Test results as given in patent publication US20180002312A1, “TETRA- AND PENTASUBSTITUTED BENZIMIDAZOLIUM COMPOUNDS USEFUL IN THE TREATMENT OF RESPIRATORY DISEASES” (Boehringer Ingelheim International GmbH, priority 2015, published 2018).
pIC50: −log10 of the molar value. Read-outs that look alike come from different tables or passages of the source.

What was measured:
[1] = target: T1, ENaC (Epithelial Sodium Channel) (Mus musculus, UniProt Q61180+Q9WU38+Q9WU39); experiment: Ussing Chamber assay: inhibition of amiloride sensitive short circuit current in M-1 cells; format: cell-based
T1 construct: Mouse kidney M-1 cells were cultivated in DMEM; endogenous in cells; host or cells: mouse kidney M-1 cells (cortical collecting duct line), dexamethasone-treated, grown on transwell filters
T1 sequence (Q61180 1-699): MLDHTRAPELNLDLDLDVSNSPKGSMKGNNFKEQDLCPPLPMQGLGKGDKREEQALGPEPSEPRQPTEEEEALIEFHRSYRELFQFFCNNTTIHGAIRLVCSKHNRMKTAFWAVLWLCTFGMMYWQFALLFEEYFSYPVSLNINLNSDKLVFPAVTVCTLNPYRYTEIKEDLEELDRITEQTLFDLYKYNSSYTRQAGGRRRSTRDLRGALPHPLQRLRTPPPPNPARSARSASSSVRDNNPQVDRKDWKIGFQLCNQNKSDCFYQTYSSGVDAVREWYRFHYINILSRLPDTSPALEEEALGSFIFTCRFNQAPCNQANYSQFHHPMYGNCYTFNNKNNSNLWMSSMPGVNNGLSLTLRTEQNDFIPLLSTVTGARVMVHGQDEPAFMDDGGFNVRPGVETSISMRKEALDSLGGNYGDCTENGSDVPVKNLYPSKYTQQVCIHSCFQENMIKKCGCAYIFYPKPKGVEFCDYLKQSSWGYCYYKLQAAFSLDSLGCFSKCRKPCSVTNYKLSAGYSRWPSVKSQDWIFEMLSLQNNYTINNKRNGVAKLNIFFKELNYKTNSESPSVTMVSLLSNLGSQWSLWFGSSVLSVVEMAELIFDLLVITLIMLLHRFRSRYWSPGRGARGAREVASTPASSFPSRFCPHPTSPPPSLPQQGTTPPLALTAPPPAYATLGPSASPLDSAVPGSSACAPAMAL
T1 sequence (Q9WU38 1-638): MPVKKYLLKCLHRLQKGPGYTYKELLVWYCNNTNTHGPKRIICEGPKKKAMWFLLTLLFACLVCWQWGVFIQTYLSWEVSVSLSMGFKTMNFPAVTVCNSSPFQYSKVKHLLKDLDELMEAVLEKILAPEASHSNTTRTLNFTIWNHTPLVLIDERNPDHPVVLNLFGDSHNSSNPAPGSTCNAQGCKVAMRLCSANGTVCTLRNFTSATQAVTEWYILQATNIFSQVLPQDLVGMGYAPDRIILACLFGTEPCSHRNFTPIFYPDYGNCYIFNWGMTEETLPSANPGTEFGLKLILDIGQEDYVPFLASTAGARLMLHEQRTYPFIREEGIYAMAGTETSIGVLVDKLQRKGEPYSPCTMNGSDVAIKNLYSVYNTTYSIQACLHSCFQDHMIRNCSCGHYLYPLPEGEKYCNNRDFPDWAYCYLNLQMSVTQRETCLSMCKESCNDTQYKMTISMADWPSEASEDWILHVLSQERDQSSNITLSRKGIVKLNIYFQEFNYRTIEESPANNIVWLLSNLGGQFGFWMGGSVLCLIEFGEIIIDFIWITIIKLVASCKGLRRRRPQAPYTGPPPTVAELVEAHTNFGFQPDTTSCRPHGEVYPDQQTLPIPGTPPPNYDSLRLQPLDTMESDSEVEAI
T1 sequence (Q9WU39 1-655): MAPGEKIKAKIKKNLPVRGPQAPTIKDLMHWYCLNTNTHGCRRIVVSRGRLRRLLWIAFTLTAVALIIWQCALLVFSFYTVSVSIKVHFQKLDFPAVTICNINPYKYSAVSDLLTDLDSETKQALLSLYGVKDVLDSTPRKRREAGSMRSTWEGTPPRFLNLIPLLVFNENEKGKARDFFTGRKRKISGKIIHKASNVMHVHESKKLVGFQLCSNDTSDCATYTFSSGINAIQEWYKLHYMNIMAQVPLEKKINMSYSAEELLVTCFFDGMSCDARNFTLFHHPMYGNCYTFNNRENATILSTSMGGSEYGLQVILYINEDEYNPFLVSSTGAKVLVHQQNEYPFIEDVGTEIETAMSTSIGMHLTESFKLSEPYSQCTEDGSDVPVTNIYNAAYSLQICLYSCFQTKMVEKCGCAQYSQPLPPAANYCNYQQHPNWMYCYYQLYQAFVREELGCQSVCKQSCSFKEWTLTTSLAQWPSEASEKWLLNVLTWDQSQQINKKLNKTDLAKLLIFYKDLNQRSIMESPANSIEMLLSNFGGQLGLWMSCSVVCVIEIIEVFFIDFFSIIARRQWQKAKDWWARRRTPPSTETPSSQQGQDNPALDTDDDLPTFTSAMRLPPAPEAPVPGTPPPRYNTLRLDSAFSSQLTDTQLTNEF
Protocol: Ussing Chamber: Mouse kidney M-1 cells were cultivated in DMEM containing 5% FCS and 5 μM dexamethasone for 10 to 12 days on polyester transwell filters. Filters were inserted into a teflon-coated well-plate which fit into the ussing chamber system. Prior to measurement the medium of M-1 cells was replaced with Caco-2 transport buffer (Invitrogen, Germany). During measurements, the Ussing chamber temperature was kept at 37° C. Short circuit currents (I_sc) were measured in the voltage-clamp mode with the software package Lab View for data acquisition and analysis. The transepithelial electrical resistance (TEER) was determined by the application of voltage steps of ±5 mV every 5 sec. Compounds were administered at a final concentration of 3 μM or at increasing concentrations (1-3-10 μM) to the apical solution. At the end of each experiment the amiloride sensitive I_SC was measured by adding 3 μM amiloride to the apical compartment. Results are expressed as inhibition in percent of the amiloride effect or as IC50.

[2] = Permeability in CALU-3 cells; format: in vitro ADME; conditions: human, CALU-3 monolayers, pH 7.4, 37° C., 10 μM compound; for Papp A→B at 90 min, 10 μM: apical-to-basal; for Papp B→A at 90 min, 10 μM: basal-to-apical
Protocol: Permeability in CALU-3 Cells:
Permeability measurements across polarized, confluent CALU-3 cell monolayers grown on permeable filter supports are used to provide information on the potential of a compound to pass the lung epithelium.
CALU-3 cells (1-2×10^5 cells/1 cm^2 area) are seeded on filter inserts (Costar transwell polycarbonate filters, 0.4 μm pore size) and cultured (for 10-12 days DMEM) until tight monolayers are formed. Compounds of interest are dissolved in appropriate solvent (DMSO, 10 mM stock solution). […] The transport solution (TL) is applied to the apical or basolateral donor side for measuring A-B or B-A permeability (3 filter replicates), respectively. The receiver side contains the same buffer as the donor side. After 30 min of accommodation, samples are collected at the start t0=0 min and at the end of the experiment tn=90 min from the donor and at 0, 30, 60, and 90 min also from the receiver chamber. Volume removed is […] by HTP-4 buffer. The compound concentration in the samples is measured by HPLC-MS/MS or scintillation counting. The permeability coefficient (Papp) and efflux ratio are calculated according to: Papp [cm/s]=(concentration receiver [nM]*volume receiver [mL]/time interval [sec])*(1/filter area)*(1/donor concentration [nM]).

[3] = Ussing chamber, mouse kidney M-1 cells, short circuit current, apical administration, 37° C., read-out: IC50

SMILES | pIC50 [1, 3] | Papp A→B at 90 min, 10 μM [2] [×10⁻⁶ cm/s] | Papp B→A at 90 min, 10 μM [2] [×10⁻⁶ cm/s] | pIC50 [1]
CC[n+]1c(CNC(=O)c2nc(Cl)c(N)nc2N)n(CCCCP(=O)([O-])O)c2cc(O)ccc21 [Example 7.01] | 7.20 |  |  | 
CC[n+]1c(CNC(=O)c2nc(Cl)c(N)nc2N)n(CCOCCN2CCCCC2=O)c2cc(OCP(C)(C)=O)ccc21 [Example 1.16] | 7.06 |  |  | 
CCOP(=O)([O-])CCCCn1c(CNC(=O)c2nc(Br)c(N)nc2N)[n+](CC)c2ccc(O)cc21 [Example 6.01] |  |  |  | 7.60
CCn1c(CNC(=O)c2nc(Cl)c(N)nc2N)[n+](CC2CCOCC2)c2ccc(OCC(=O)N(Cc3ccccc3)Cc3nc(C)ccc3[O-])cc21 [Example 1.05] | 8.30 |  |  | 
CC[n+]1c(CNC(=O)c2nc(Cl)c(N)nc2N)n(C[C@@H]2CCCO2)c2cc(OCC(=O)N3CCN(C(=O)OCc4ccccc4)CC3)ccc21 [Example 1.14] | 8.15 |  |  | 
CCn1c(CNC(=O)c2nc(Cl)c(N)nc2N)[n+](Cc2cccc(C(=O)N3CC[S+]([O-])CC3)c2)c2ccc(OCCO)cc21.O=C([O-])C(F)(F)F [Example 1.08] | 7.80 | 0.1 | 0.09 | 
CC[n+]1c(CNC(=O)c2nc(Cl)c(N)nc2N)n(CCOCCn2ccccc2=O)c2cc(OCP(C)(C)=O)ccc21.O=C([O-])C(F)(F)F [Example 1.03] | 7.31 | 0.2 | 0.07 | 
CC[n+]1c(CNC(=O)c2nc(Cl)c(N)nc2N)n(CCOCCn2cc(C(=O)N(C)C)ccc2=O)c2cc(OCCO)ccc21 [Example 1.11] | 7.59 |  |  | 
CCn1c(CNC(=O)c2nc(Cl)c(N)nc2N)[n+](Cc2cccnc2)c2ccc(OCC(=O)N(C)C)cc21.O=C([O-])C(F)(F)F [Example 1.02] | 8.22 | 0.4 | 0.2 | 
CCNC(=O)N1CCC(n2c(CNC(=O)c3nc(Cl)c(N)nc3N)[n+](CC)c3ccc(OCC(=O)O)cc32)CC1 [Example 5.01] | 7.74 |  |  | 

The remaining compounds from weak to strong by pIC50 [1, 3], led by results:

pIC50 [1, 3] | Papp A→B at 90 min, 10 μM [2] [×10⁻⁶ cm/s] | Papp B→A at 90 min, 10 μM [2] [×10⁻⁶ cm/s] | SMILES | pIC50 [1]
8.40 |  |  | CCCCCCN1CCC(NC(=O)COc2ccc3c(c2)n(C2CCN(C(=O)NCC)CC2)c(CNC(=O)c2nc(Cl)c(N)nc2N)[n+]3CC)CC1 [Example 4.01] | 
8.52 |  |  | Nc1nc(N)c(C(=O)NCc2n(C[C@@H]3CCCO3)c3cc(OCCO)ccc3[n+]2CCOCCO)nc1Cl [Example 1.09] | 
8.52 | 0.3 | 0.2 | C[n+]1c(CNC(=O)c2nc(Cl)c(N)nc2N)n(C[C@@H]2CCCO2)c2cc(OCCO)ccc21.O=C([O-])C(F)(F)F [Example 1.04] | 
8.52 |  |  | CCNC(=O)N1CCC(n2c(CNC(=O)c3nc(Cl)c(N)nc3N)[n+](CC)c3ccc(OCC(=O)NC4CCNCC4)cc32)CC1 [Example 3.02] | 
8.70 |  |  | CCn1c(CNC(=O)c2nc(Cl)c(N)nc2N)[n+](CC2CCOCC2)c2ccc(OCC(=O)N(Cc3nc(C)ccc3[O-])C[C@H](C)O)cc21 [Example 1.12] | 
8.70 |  |  | CC[n+]1c(CNC(=O)c2nc(Cl)c(N)nc2N)n(C[C@@H]2CCCO2)c2cc(OCC(=O)N3C[C@@H](O)[C@H](O)C3)ccc21 [Example 1.15] | 
8.70 |  |  | CCNC(=O)N1CCC(n2c(CNC(=O)c3nc(Cl)c(N)nc3N)[n+](CC)c3ccc(OCC(=O)NC4CCN(CC)CC4)cc32)CC1 [Example 4.02] | 
8.70 | 0.4 | 0.1 | CC[n+]1c(CNC(=O)c2nc(Cl)c(N)nc2N)n(CC2CCOCC2)c2cc(OCCC[n+]3cc([O-])cc(OC)c3)c(Cl)cc21.O=C([O-])C(F)(F)F [Example 1.13] | 
8.70 |  |  | CCn1c(CNC(=O)c2nc(Cl)c(N)nc2N)[n+](CC2CCOCC2)c2ccc(OCC(=O)NCc3nc(C)ccc3[O-])cc21 [Example 1.07] | 
9.00 | 0.03 | 0.05 | CC[n+]1c(CNC(=O)c2nc(Cl)c(N)nc2N)n(C[C@@H]2CCCO2)c2cc(OCC(=O)NCc3ccccn3)ccc21.O=C([O-])C(F)(F)F [Example 2.01] | 
9.00 | 0.5 | 0.08 | CC[n+]1c(CNC(=O)c2nc(Cl)c(N)nc2N)n(C[C@@H]2CCCO2)c2cc(OCC(=O)N3CC[S+]([O-])CC3)ccc21.O=C([O-])C(F)(F)F [Example 1.01] | 
9.00 |  |  | CCn1c(CNC(=O)c2nc(Cl)c(N)nc2N)[n+](CC2CCOCC2)c2ccc(OCC(=O)N(C)Cc3nc(C)ccc3[O-])cc21 [Example 1.06] | 
9.00 |  |  | CCN(Cc1ncccc1[O-])C(=O)COc1ccc2c(c1)n(CC)c(CNC(=O)c1nc(Cl)c(N)nc1N)[n+]2CC1CCOCC1 [Example 1.17] | 
